Measured values from US6472425B1, “Methods for treating female sexual dysfunctions” (NitroMed, Inc., priority 1997, dated 2002).

Tested on: Human corpus cavernosum tissue
Assay: In vitro comparative relaxation responses, isometric tension of phenylephrine-contracted tissue strips in organ chambers
Type: cell-based
Conditions: doses of 10 μM and 30 μM, compared with an equimolar dose of dipyridamole; tissue contracted with phenylephrine 7×10^−7 M; −100% = tone after papaverine 10^−4 M; FIG. 40
Description: In Vitro Comparative Relaxation Responses
Human corpus cavernosum tissue biopsies were obtained at the time of penile prosthesis implantation from impotent men. The tissue was maintained in a chilled Krebs-bicarbonate solution prior to assay. The tissue was cut into strips of 0.3×0.3×1 cm and suspended in organ chambers for isometric tension measurement. Tissues were incrementally stretched until optimal isometric tension for contraction was obtained. Once this was achieved, the tissues were contracted with phenylephine (7×10^−7 M) and once a stable contraction was achieved, the tissues were exposed to either dipyridamole or Example 1 (10^−6 to 3×10^−5 M) by cumulative additions to the chamber. At the end of the experiment papaverine (10^−4 M) is added to obtain maximal relaxation. […] Data are expressed as the percent loss in tone from the phenylephrine-induced contraction (0%=phenylephrine contraction; −100% tone after the administration of papaverine).

## CC(C)(CC(=O)OCCN(CCOC(=O)CC(C)(C)SN=O)c1nc(N2CCCCC2)c2nc(N(CCOC(=O)CC(C)(C)SN=O)CCOC(=O)CC(C)(C)SN=O)nc(N3CCCCC3)c2n1)SN=O [Example 1, 2,6-bis(diethyl(3-methyl-3(nitrosothiol)butyric acid ester)amino)-4,8-dipiperidinopyrimido-[5,4d]-pyrimidine]
  relaxing the phenylephrine-induced contraction (percent loss in tone from the phenylephrine-induced contraction): more efficacious
